From PMC9408991, “Antitumor Effects of a New Retinoate of the Fungal Cytotoxin Illudin M in Brain Tumor Models” (International Journal of Molecular Sciences, 2022)
Like-named read-outs stand apart in the source and are kept apart here.

Columns and labels:
primary neurons = test: MTT cell viability assay, primary neurons; format: cell-based; settings: Mus musculus, Primary neuron, read-out: Inhibitory concentration IC50
Procedure: (§1) NE-4C cells derived from the anterior brain vesicles of p53-deficient 9-day-old mouse embryos were maintained in Minimum Essential Medium (MEM; Sigma Aldrich, Taufkirchen, Germany) supplemented with 5% fetal calf serum (FCS; Invitrogen-Gibco, Carlsbad, CA, USA), 4 mM glutamine (Sigma-Aldrich, Taufkirchen, Germany) and 40 ug/mL gentamycin (Chinoin, Budapest, Hungary). For maintenance, subconfluent cultures were regularly split by trypsinization (0.05 w/v% trypsin in PBS) into poly-L-lysine-coated Petri dishes. Primary astrocytes were isolated from whole brains of neonatal (P0-P3) mice, as described earlier. In brief, meninges were removed, and the tissue pieces were subjected to enzymatic dissociation, using 0.05% w/v trypsin and 0.05% w/v DNase for 10 min at room temperature. The cells were plated onto poly-L-lysine coated plastic surfaces and grown in MEM supplemented with 10% fetal calf serum, 4 mM glutamine and 40 ug/mL gentamycin. Primary neuronal cultures were prepared from embryonic (E15–E16) mouse (CD1) forebrains, as described earlier. In brief, cell suspensions were prepared by mechanical dissociation over a nylon mesh with a pore diameter of 40–42 μm. The cells were seeded at 10^5 cells/cm^2 density onto PLL-coated surfaces. The cultures were maintained in MEM supplemented with 5% FCS, 4 mM glutamine, 40 µg/mL gentamicin and 2.5 μg/mL amphotericin B (Sigma). In co-culture experiments, U87 glioma cells were seeded onto established neuronal cultures at DIV3 in a 25,000 cell/cm^2 density.
(§2) Non-GBM cells (5 × 10^4 cells/mL, 100 µL/well) were grown in 96-well plates for 24 h. […] After the addition of 12.5 µL of a 0.5% MTT solution in PBS, the cells were incubated for 3 h at 37 °C so that the water-soluble MTT could be converted to formazan crystals. Then, the plates were centrifuged (300× g, 5 min, 4 °C), the medium withdrawn, and the formazan dissolved in 25 µL of DMSO containing 10% sodium dodecylsulfate (SDS) and 0.6% acetic acid for at least 2 h at 37 °C. In the case of the HL60 cells, after 2 h, the precipitate of formazan crystals was redissolved in a 10% solution of SDS in DMSO containing 0.6% acetic acid.

[1] = tested on: MCF-7^+Topo breast carcinoma cells; test: MTT cell viability assay, MCF-7+Topo breast carcinoma; format: cell-based; settings: Homo sapiens, MCF7/Topo, read-out: Inhibitory concentration IC50
Procedure: (§3) 518A2 (Department of Radiotherapy, Medical University of Vienna, Vienna, Austria) melanoma, KB-V1^Vbl (ACC-149) cervix carcinoma, MCF-7^Topo (ACC-115) breast carcinoma, HT29 (ACC-299) colon carcinoma were cultivated in Dulbecco’s Modified Eagle Medium (DMEM) supplemented with 10% fetal bovine serum and 1% antibiotic-antimycotic at 37 °C, 5% CO2, and 95% humidity. To keep MCF-7^Topo and KB-V1^Vbl cells resistant, the maximum-tolerated doses of topotecan or vinblastine were added to the cell culture medium 24 h after every passage. The human HL60 leukemia cells were obtained from the German National Resource Center for Biological Material (DSMZ), Braunschweig. Neuroectodermal stem cells NE-4C (ATCC No. CRL-2925), primary mouse astrocytes, rat glioma C6 (ATCC No. CCL-107) and human glioma U87 (ATCC No. HTB-14) were used.
as §2

U251 glioblastoma cells = test: MTT cell viability assay, U251 glioblastoma; format: cell-based; settings: Homo sapiens, read-out: Inhibitory concentration IC50
Procedure: U251 (formerly known as U-373 MG; ECACC 09063001), Mz54 (CVCL_M406) human glioblastoma cell lines were cultured in DMEM+GlutaMax supplemented with 10% fetal bovine serum and 1% penicillin/streptomycin mixture. The human glioma cell line Mz54 was obtained from the Dept. of Neurosurgery, University Medical Centre, Johannes Gutenberg University Mainz, Germany, where this line was isolated from a recurrent grade IV glioblastoma. U251 and Mz54 cells were used in passages between 10 and 25 after re-authentication and 40 to 55 after culture establishment, respectively. Only mycoplasma-free cell cultures were used.
[…] Afterward, 10 µL of a 5 mg/mL MTT solution in PBS was added to the cells for 3 h at 37 °C. Then, the spheres were centrifuged shortly to collect the cells on the bottom of the plate, and the medium was removed by careful pipetting for both adherently grown and floating sphere GBM cultures. Afterward, formazan was dissolved in a mixture (24:1 v:v) of isopropanol and 1 M HCl using 100 µL for adherent cells by shaking the plates for at least 20 min. The absorbance of formazan (λ = 570 nm), and background (λ = 630 nm) was measured with a microplate reader (Tecan Spark, Tecan Deutschland GmbH, Crailsheim, Germany).

[2] = tested on: HT-29 colon carcinoma cells; test: MTT cell viability assay, HT-29 colon carcinoma; format: cell-based; settings: Homo sapiens, read-out: Inhibitory concentration IC50
Procedure: as §3, §2

[3] = tested on: co-cultures of neuronal cells and U87 glioma cells; test: Co-culture of primary neurons and U87 glioma cells; format: cell-based, mouse / human; settings: 1 µM
Procedure: The selectivity of illudins 1 and 2 for U87 glioblastoma cells versus normal neuronal cells was evaluated by applying them to co-cultures of these cells serving as a surrogate brain tumor model. To this end, isolated murine primary neurons were grown on IBIDI dishes and after […] and the establishment of neuronal aggregates, the glioma U87 cells (~ 25,000 cells) were added to the neuronal culture. After 12 h, 1 and 2 were applied in 1 µM concentrations and the response of the different cells was monitored over a period between 15 and 48 h post incubation (Figure 8). In the control samples, the number of proliferating U87 cells increased with time and overgrew the diminishing number of differentiating neurons.
as §1
Figure 8 Co-culture of neuronal cells and U87 glioma cells in the absence or presence of 1 µM of 1 or 2. The neuronal aggregates are marked by arrowheads. Scale bar: 100 µm.

518A2 melanoma cells = test: MTT cell viability assay, 518A2 melanoma; format: cell-based; settings: Homo sapiens, read-out: Inhibitory concentration IC50
Procedure: as §3, §2

| SMILES | IC50 (primary neurons; 24 h exposure) [nM] | IC50 (primary neurons; 48 h exposure) [nM] | IC50 ([1]; 24 h exposure) [nM] | IC50 ([1]; 48 h exposure) [nM] | IC50 (U251 glioblastoma cells; U-251, U251, 24 h exposure) [nM] | IC50 (U251 glioblastoma cells; U-251, U251, 48 h exposure) [nM] | IC50 ([2]; HT-29, 24 h exposure) [nM] | IC50 ([2]; HT-29, 48 h exposure) [nM] | response of neurons and U87 cells in co-culture ([3]; 15 h after treatment) | response of neurons and U87 cells in co-culture ([3]; 48 h after treatment) | IC50 (518A2 melanoma cells; 518A2, 24 h exposure) [nM] | IC50 (518A2 melanoma cells; 518A2, 48 h exposure) [nM] |
| --- | --- | --- | --- | --- | --- | --- | --- | --- | --- | --- | --- | --- |
| CC1=C2C(=CC(C)(C)[C@@H]2O)C(=O)[C@](C)(O)C12CC2 [Compound 1, illudin M] | 600 ± 120 | 190 ± 40 | 350 ± 130 | 50 ± 10 | 300 ± 50 | 120 ± 20 | 1500 ± 600 | 60 ± 10 | considerable cellular fragmentation | merely cell debris | 40 ± 10 | 20 ± 10 |
| CC1=C(/C=C/C(C)=C/C=C/C(C)=C/C(=O)O[C@@H]2C3=C(C)C4(CC4)[C@@](C)(O)C(=O)C3=CC2(C)C)C(C)(C)CCC1 [Compound 2, illudin M retinoate] | 26000 ± 1000 | 14000 ± 2000 | 2500 ± 600 | 80 ± 10 | – | 4510 ± 1300 | 38000 ± 4000 | 4000 ± 1300 | healthy and compact neuronal aggregates | many neurons were still present | 5000 ± 300 | 4000 ± 700 |
